Measurements from PubChem BioAssay AID1199 (EPA DSSTox, 2008).
The source made the active and inactive calls.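 How the source made its calls: active means a tumour-causing dose and a tumour site recorded for mice in at least one sex group; inconclusive means only government mouse studies exist and were judged inadequate; inactive means mouse studies exist but none gave tumours.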

Each compound was assayed on mouse carcinogenicity bioassay, TD50 from CPDB (assay: DSSTox (CPDBAS) Carcinogenic Potency Database Summary Mouse Bioassay Results). Settings: TD50_Mouse_Note: no positive results; TargetSites_Mouse_Female: no positive results.
In short: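 Chronic long-term mouse cancer bioassays from literature and NCI/NTP, compiled per sex. TD50 is the standardized carcinogenic potency, using the most positive experiment per sex-species; target sites follow author opinion.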

Row | SMILES | outcome
1 | C=CC | inactive; no positive results
2 | CNCCC(Oc1ccc(C(F)(F)F)cc1)c1ccccc1 (stereo unspecified) | inactive; no positive results
3 | COC(=O)C1=C(C)NC(C)=C(C(=O)OCCc2ccc(N3CCN(C(c4ccccc4)c4ccccc4)CC3)cc2)C1c1cccc([N+](=O)[O-])c1 (stereo unspecified) | inactive; no positive results
4 | [Na+] | inactive; no positive results
5 | C/C=C/C=C/C(=O)O | inactive; no positive results
6 | OC[C@H]1O[C@@](CO)(O[C@H]2O[C@H](CO)[C@@H](O)[C@H](O)[C@H]2O)[C@@H](O)[C@@H]1O | inactive; no positive results
7 | OB(O)O | inactive; no positive results
8 | CCOP(=S)(OCC)Oc1ccc2c(C)c(Cl)c(=O)oc2c1 | inactive; no positive results
9 | CC(C)C[C@H]1C(=O)N2CCC[C@H]2[C@]2(O)O[C@](NC(=O)[C@@H]3C=C4c5cccc6[nH]c(Br)c(c56)C[C@H]4N(C)C3)(C(C)C)C(=O)N12 | inactive; no positive results
10 | CN(C)CCOC(c1ccccc1)c1ccccc1 | inactive; no positive results
11 | CCN=c1cc2oc3cc(NCC)c(C)cc3c(-c3ccccc3C(=O)OCC)c-2cc1C | inactive; no positive results
12 | CN1C(=O)CN=C(c2ccccc2)c2cc(Cl)ccc21 | inactive; no positive results
13 | O=C(O)c1ccncc1 | inactive; no positive results
14 | Cn1cc(OCC(O)CNC(C)(C)C)c2ccccc2c1=O (stereo unspecified) | inactive; no positive results
15 | Cl[C@H]1OCCO[C@@H]1Cl | inactive
16 | N#CC(c1ccccc1)c1ccccc1 | inactive; no positive results
17 | O=C(c1ccccc1)C(O)c1ccccc1 (stereo unspecified) | inactive; no positive results
18 | Nc1ccc(N)c(Cl)c1 | inactive; no positive results
19 | Clc1ccc(C(c2ccccc2Cl)C(Cl)Cl)cc1 (stereo unspecified) | inactive; no positive results

Row | SMILES | outcome
20 | Cc1ccc2c(-c3ccccc3)nc(=O)n(C(C)C)c2c1 | inactive; no positive results
21 | FC(F)Cl | inactive; no positive results
22 | Cc1ccc(N)cc1Cl | inactive; no positive results
23 | COc1cc2c(c3oc(=O)c4c(c13)CCC4=O)C1C=COC1O2 (stereo unspecified) | inactive; no positive results
24 | Cn1c(=O)c2[nH]cnc2n(C)c1=O | inactive; no positive results
25 | Cc1cc(O)cc(C)c1N(C)C | inactive; no positive results
26 | CC#N | inactive; no positive results
27 | CCCCC(C)(O)C/C=C/[C@H]1[C@H](O)CC(=O)[C@@H]1CCCCCCC(=O)OC (stereo partly specified) | inactive; no positive results
28 | CCCCOC(=O)COc1ccc(Cl)cc1Cl | inactive; no positive results
29 | CCO | inactive; no positive results
30 | Nc1ccccc1C(=O)O | inactive; no positive results
31 | O=S(=O)(c1ccc(Cl)cc1)c1cc(Cl)c(Cl)cc1Cl | inactive; no positive results
32 | C=C(C)[C@H]1CC=C(C)CC1 | inactive; no positive results
33 | O=C1O[C@H]([C@@H](O)CO)C(O)=C1O | inactive; no positive results
34 | CN1C(=O)C[C@@H](C(=O)N[C@@H](Cc2cnc[nH]2)C(=O)N2CCC[C@H]2C(N)=O)NC1=O | inactive; no positive results
35 | O=C1CCCO1 | inactive; no positive results
36 | FC(F)OC(F)(F)C(F)Cl (stereo unspecified) | inactive; no positive results
37 | CNC(=O)Oc1cccc2c1OC(C)(C)C2 | inactive; no positive results

Same assay, conditions: TD50_Mouse_Note: positive test results only by intraperitoneal or intravenous injection; TD50 is harmonic mean of more than one positive; TargetSites_Mouse_Female: hematopoietic system; lung

Row | SMILES | Potency
38 | O=P1(N(CCCl)CCCl)NCCCO1 (stereo unspecified) | 0.0228 mmol/kg/day

Same assay, conditions: TD50_Mouse_Note: positive test results only by intraperitoneal or intravenous injection; TD50 is harmonic mean of more than one positive; TargetSites_Mouse_Female: lung

Row | SMILES | Potency
39 | N[C@@H](Cc1ccc(N(CCCl)CCCl)cc1)C(=O)O | 0.000491 mmol/kg/day

Same assay, conditions: TD50_Mouse_Note: positive test results only by intraperitoneal or intravenous injection; TD50 is harmonic mean of more than one positive; TargetSites_Mouse_Female: peritoneal cavity

Row | SMILES | Potency
40 | CC(COc1ccccc1)N(CCCl)Cc1ccccc1 (stereo unspecified) | 0.0158 mmol/kg/day

Same assay, conditions: TargetSites_Mouse_BothSexes: no positive results

Row | SMILES | outcome
41 | O=[N+]([O-])c1ccc(O)c([N+](=O)[O-])c1 | inactive

Same assay, conditions: TargetSites_Mouse_Female: hematopoietic system

Row | SMILES | Potency
42 | Nc1nc(-c2ccc([N+](=O)[O-])cc2)cs1 | 0.045 mmol/kg/day

Same assay, conditions: TargetSites_Mouse_Female: liver

Row | SMILES | Potency
43 | C=CCc1ccc(OC)cc1 | 0.35 mmol/kg/day
44 | CCCCCC | 352 mmol/kg/day
45 | CCCc1c(OCCCCc2nn[nH]n2)ccc(C(C)=O)c1O | 0.352 mmol/kg/day
46 | Nc1cc(Cl)cc(C(=O)O)c1Cl | 25.4 mmol/kg/day
47 | Cc1cccc(Nc2cc(Cl)nc(SCC(=O)NCCO)n2)c1C | 0.122 mmol/kg/day

Same assay, conditions: TargetSites_Mouse_Female: no positive results

Row | SMILES | Potency
48 | Nc1c(F)c(N)c(F)c(F)c1F | 0.341 mmol/kg/day
49 | N[C@@H](CCC(=O)NNc1ccc(C(=O)O)cc1)C(=O)O | 0.985 mmol/kg/day
50 | CC(=O)N[C@@H](CC(C)C)C(=O)N[C@@H](CC(C)C)C(=O)N[C@H](C=O)CCCN=C(N)N | 0.131 mmol/kg/day

Same assay, conditions: TargetSites_Mouse_Female: stomach

Row | SMILES | Potency
51 | CC(Cl)C=O (stereo unspecified) | 0.139 mmol/kg/day
